CC(=O)OC(OC(C)=O)c1ccc([N+](=O)[O-])o1
solubility (mole fraction)
Conditions | in 1,4-dioxane | in DMF | in THF | in acetone | in acetonitrile | in ethyl acetate | in methanol | in n-hexane | in n-propanol | in toluene
278.15 K | 0.0821 | 0.161 | 0.121 | 0.0864 | 0.0016 | 0.002 | 0.0778 | 0.0285 | 0.0435 | 0.141
283.15 K | 0.0954 | 0.174 | 0.146 | 0.108 | 0.002 | 0.0031 | 0.0834 | 0.0358 | 0.0474 | 0.154
288.15 K | 0.109 | 0.192 | 0.181 | 0.127 | 0.0028 | 0.0048 | 0.0898 | 0.0458 | 0.0513 | 0.171
293.15 K | 0.131 | 0.209 | 0.217 | 0.156 | 0.0038 | 0.0068 | 0.0995 | 0.0562 | 0.0571 | 0.192
298.15 K | 0.146 | 0.227 | 0.256 | 0.182 | 0.0052 | 0.0101 | 0.108 | 0.0721 | 0.0625 | 0.211
303.15 K | 0.166 | 0.248 | 0.298 | 0.214 | 0.0069 | 0.0143 | 0.118 | 0.0883 | 0.0687 | 0.239
308.15 K | 0.188 | 0.271 | 0.341 | 0.249 | 0.0093 | 0.02 | 0.129 | 0.109 | 0.0761 | 0.267
313.15 K | 0.214 | 0.296 | 0.385 | 0.291 | 0.0126 | 0.0283 | 0.143 | 0.133 | 0.0843 | 0.293
318.15 K | 0.237 | 0.319 | 0.434 | 0.33 | 0.0167 | 0.0405 | 0.155 | 0.162 | 0.0924 | 0.33
323.15 K | 0.267 | 0.351 | 0.488 | 0.379 | 0.0215 | 0.0548 | 0.173 | 0.196 | 0.104 | 0.373
